Here are results for seven compounds from patent US20240245691A1 (Sitryx Therapeutics Limited, priority 2021, published 2024).

Data set [1] deals with plasma protein. Kind of data set: Plasma protein binding (rapid equilibrium dialysis), human. The class given is in vitro ADME. As to conditions: for Binding (%): Human plasma, 5 μM compound, 4 hours. Here is the method:
(§1) Equilibrium dialysis is an accurate and reliable method for determining protein binding affinities to chemical or biological substances of low molecular weight. The Rapid Equilibrium Dialysis (RED) plate is specifically designed and extensively validated for plasma protein binding assays. It is also designed for minimal non-specific binding (Thermo Fisher).
(§2) • Phosphate buffered saline (PBS) pH 7.4 was prepared using PBS tablets as per the manufacturer's instructions. • Compound and marker stocks were prepared at 10 mM in DMSO and further diluted to 100× the assay concentration in DMSO. • Plasma was thawed on the day of the assay and centrifuged. The supernatant was transferred to a fresh vessel and the pH adjusted to pH 7.4 using lactic acid or sodium hydroxide.
(§3) Pre-prepared 100× assay compound stocks were spiked 1:100 into pH adjusted plasma. 200 μL of spiked plasma was added to the red compartment of the rapid equilibrium dialysis (RED) device for each replicate. 350 μL of PBS was added to the buffer compartment. The plate was sealed with a breathable lid and shaken on an orbital shaker in a 37° C. incubator, 5% CO2 for 4 hours.
(§4) Standard final incubation conditions were 5 μM compound in plasma containing 1% (v/v) DMSO.
(§5) A sample of the plasma/compound mixture was taken, mixed with an equal volume of PBS and quenched 1:3 with ice-cold acetonitrile containing internal standard. Methanol was also added to matrix match with calibration curve samples. This was the t=0 sample.
(§6) Post-incubation, plasma and buffer were sampled from their respective RED device compartments into separate tubes containing an equal volume of the alternate matrix for each replicate. Samples were quenched 1:3 with ice-cold acetonitrile containing internal standard. Methanol was also added to matrix match with calibration curve samples.
Calibration curves were prepared in methanol and spiked such that the matrix was equivalent to the assay samples.
Quenched samples were mixed thoroughly and protein precipitated at −20° C. for a minimum of 12 hours. Samples were then centrifuged at 4° C. Supernatants were transferred to a fresh 96 well plate for analysis.
Positive control markers were included.
(§7) Fraction unbound, percent bound and percent recovery were the standard assay parameters reported. They were calculated using the following equations: […]
An example compound of formula (I) was tested in this assay. Reference Example 2 (RE2) (which corresponds to Example 49 in WO2020/222011 (Sitryx Therapeutics, 2020)) was used as a comparator compound.

Data set [2] relates to plasma protein. In words: Plasma protein binding (rapid equilibrium dialysis), mouse. As to conditions: 5 μM compound, 4 hours. The class given is in vitro ADME. Here is the method:
as §1, §2, §3, §4, §5, §6
Calibration curves were prepared in methanol and spiked such that the matrix was equivalent to the assay samples. […]
as §7

For data set [3], the system named is NRF2 (nuclear factor erythroid 2-related factor 2). Kind of data set: NRF2 +/-GSH activation assay (DiscoverX PathHunter NRF2 translocation kit, U2OS cells). The format is cell-based. Conditions: Homo sapiens.
Another data set has as its system IL-1β. Kind of data set: THP-1 AlphaLISA IL-1β cytokine assay (differentiated THP-1 cells). The format is cell-based. Conditions: Homo sapiens. In a few lines: (§8)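 PMA-differentiated THP-1 cells were preincubated 30 min with compound, stimulated with LPS for 24 h, then nigericin for 1 h, all at 37 °C. Supernatant IL-1β and IL-6 were quantified by AlphaLISA. % inhibition is normalised to +LPS and −LPS controls per cytokine.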

For another data set, the system named is IL-6. Kind of data set: THP-1 AlphaLISA IL-6 cytokine assay (differentiated THP-1 cells). The format is cell-based. Conditions: Homo sapiens. In a few lines: as §8
Data set [4] in a line: Hepatocyte stability assay, mouse. As to conditions: mouse, hepatocytes, T½. The format is in vitro ADME. The procedure, abridged: (§9)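 Cryopreserved hepatocytes at 0.5×10^6 cells/mL in Leibovitz buffer, 37 °C, with 10 μM compound (0.1% DMSO), duplicate. Samples at 0-60 min, acetonitrile quench, LC-MS/MS; intrinsic clearance and half-life from ln % remaining versus time, with buffer-only incubations as control.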

In data set [5] the test system is cryo-preserved hepatocytes. In words: Hepatocyte stability assay, mouse. Conditions: mouse, hepatocytes. The format is in vitro ADME. The procedure, abridged:
as §9

The nature of data set [6]: Hepatocyte stability assay, human. As to conditions: human, hepatocytes, T½. The class given is in vitro ADME. The procedure, abridged: as §9
The subject of data set [7] is cryo-preserved hepatocytes. Kind of data set: Hepatocyte stability assay, human. The format is in vitro ADME. As to conditions: human, hepatocytes. The procedure, abridged: as §9
Setting [8] is: U2OS, +GSH, normalised to dimethyl fumarate high control, read-out: NRF2 activation Emax, +GSH.
Where [9] appears, read: U2OS, −GSH, normalised to dimethyl fumarate high control, read-out: NRF2 activation Emax, −GSH.
Where [10] appears, read: +GSH, U2OS PathHunter cells, 6 hours, read-out: NRF2 activation EC50, +GSH.
The mark [11] stands for this setting: −GSH, U2OS PathHunter cells, 6 hours, read-out: NRF2 activation EC50, −GSH.
The mark [12] stands for this setting: THP-1, differentiated THP-1 cells, LPS 24 hr then Nigericin 1 hour, read-out: IL-1β (IC50).
Setting [13] is: THP-1, differentiated THP-1 cells, LPS 24 hr then Nigericin 1 hour, read-out: IL-6 (IC50).
[14] abbreviates: U2OS, 6 h, read-out: NRF2 activation EC50, +GSH.
The mark [15] stands for this setting: U2OS, 6 h, read-out: NRF2 activation EC50, −GSH.
Setting [16] is: U2OS, read-out: NRF2 activation Emax, +GSH.
Where [17] appears, read: U2OS, read-out: NRF2 activation Emax, −GSH.
[18] abbreviates: THP-1, differentiated THP-1 cells, footnote a: data from repeated experiments, read-out: IL-1β (IC50), data from repeated experiments.

Read-outs that look alike come from different tables or passages of the source.

As to `C=C(CC(=O)OCCCCCCCC)C(=O)OCC(=O)O` [RE2, reference compound], the “Binding (%)” value in the data set with plasma protein [1] and in the data set with plasma protein [2] was above 99% in each case.

Turning to `C=C(CC(=O)N[C@@H](C)c1ccc(C(F)(F)F)cn1)C(=O)OCCO` [Example 34, 2-hydroxyethyl (S)-2-methylene-4-oxo-4-((1-(5-(trifluoromethyl)pyridin-2-yl)ethyl)amino)butanoate], the figures for the Emax in [3] (setting [8]) and in data set [3] (setting [9]) were 16% and 81%, respectively. Besides, the 50% effective concentration (EC50) in [3] (setting [10]) is above 100 µM; in [3] (setting [11]), 5.7 µM. For the same compound, the IC50 stood at 14.8 µM with IL-1β (setting [12]) and 25.8 µM in the data set with IL-6 (setting [13]). Moreover, the values for the half-life at 10 μM in data set [4] and in [6] were 71 min and 137 min, respectively. The figures for the Clint in [5] and in data set [7] were 24 μL min^−1 10^−6 cells and 11 μL min^−1 10^−6 cells, respectively.

For the compound `C=C(CC(=O)N[C@@H](C)c1ccc(C(F)(F)F)cc1)C(=O)O` [Example 3, (S)-2-methylene-4-oxo-4-((1-(4-(trifluoromethyl)phenyl)ethyl)amino)butanoic acid], the “Binding (%)” value with plasma protein [1] was 89.0%; with plasma protein [2], 86.8%. In the data set on plasma protein [1] (Table 4, human and mouse plasma), the “plasma protein binding compared to prior art ester compound (in words)” value is reported as “lower plasma protein binding”. The EC50 in data set [3] (setting [14]) and in [3] (setting [15]) was above 100 µM throughout. The Emax in data set [3] (setting [16]) and in data set [3] (setting [17]) was 0% throughout. Further, the IC50 was 2.2 µM in the data set on IL-1β (THP-1, read-out: IL-1β (IC50)); 4 µM in the data set with IL-1β (THP-1, read-out: IL-1β (IC50), data from repeated experiments); above 82.5 µM with IL-6 (THP-1, read-out: IL-6 (IC50)). In addition, the half-life at 10 μM was 402 min in data set [4], above 460 min in [4] (data from repeated experiments), above 460 min in [6] and 358 min in data set [6] (data from repeated experiments). The results for the Clint in [5] and in data set [7] were below 3 μL min^−1 10^−6 cells and 4 μL min^−1 10^−6 cells, respectively.

Turning to `C=C(CC(=O)NC1(c2ccc(C(F)(F)F)cc2)CCC1)C(=O)O` [Example 5, 2-methylene-4-oxo-4-((1-(4-(trifluoromethyl)phenyl)cyclobutyl)amino)butanoic acid], the results for the maximal response (Emax) in data set [3] (setting [8]) and in data set [3] (setting [9]) were 0% and 17%, respectively. Also, the EC50 in data set [3] (setting [10]) and in [3] (setting [11]) was above 100 µM throughout. For the same compound, the 50% inhibitory concentration (IC50) is 3.7 µM in the data set on IL-1β (setting [12]), 5.6 µM in the data set with IL-1β (setting [18]) and above 56.2 µM in the data set with IL-6 (setting [13]). In addition, the results for the half-life at 10 μM in data set [4] and in data set [6] were 450 min and above 460 min, respectively. Further, the Clint is listed as 3 μL min^−1 10^−6 cells in data set [5] and below 3 μL min^−1 10^−6 cells in data set [7].

`C=C(CC(=O)NC(C)(C)c1ccc(C(F)(F)F)cc1)C(=O)O` [Example 4, 2-methylene-4-oxo-4-((2-(4-(trifluoromethyl)phenyl)propan-2-yl)amino)butanoic acid]: the “Binding (%)” value in the data set with plasma protein [1] is 89.2%; in the data set on plasma protein [2], 83.7%. Further, the maximum response (Emax) in data set [3] (setting [8]) was determined as 0%; in data set [3] (setting [9]), 1%. Also, the half-maximal effective concentration (EC50) in data set [3] (setting [10]) and in [3] (setting [11]) was above 100 µM throughout. The IC50 was 3.4 µM with IL-1β (setting [12]), 3.9 µM in the data set on IL-1β (setting [18]) and above 63.1 µM in the data set with IL-6 (setting [13]). Moreover, the half-life at 10 μM in data set [4] is above 460 min; in data set [6], 390 min. Moreover, the Clint is given as 3 μL min^−1 10^−6 cells in data set [5] and below 3 μL min^−1 10^−6 cells in data set [7]. For the same compound, the T½ in data set [7] (10 μM) was above 460 min.

Regarding `C=C(CC(=O)NC1(c2ccc(C(F)(F)F)cc2)CCC1)C(=O)OC1CCN(S(C)(=O)=O)CC1` [Example 9, 1-(methylsulfonyl)piperidin-4-yl 2-methylene-4-oxo-4-((1-(4-(trifluoromethyl)phenyl)cyclobutyl)amino)butanoate], the maximal response (Emax) in data set [3] (setting [8]) came out at 55%; in data set [3] (setting [9]), 109%. For the same compound, the EC50 is above 100 µM in [3] (setting [10]) and 19.2 µM in data set [3] (setting [11]). In addition, the results for the 50% inhibitory concentration (IC50) in the data set with IL-1β (setting [12]) and with IL-6 (setting [13]) were 8.2 µM and 7.27 µM, respectively. Further, the half-life at 10 μM is 3.5 min in data set [4] and 10 min in data set [6]. In addition, the Clint came out at 619 μL min^−1 10^−6 cells in data set [5] and 116 μL min^−1 10^−6 cells in data set [7].

As to `C=C(CC(=O)N[C@@H](C)c1ccc(C(F)(F)F)cn1)C(=O)OC1CCN(S(C)(=O)=O)CC1` [Example 31, 1-(methylsulfonyl)piperidin-4-yl (S)-2-methylene-4-oxo-4-((1-(5-(trifluoromethyl)pyridin-2-yl)ethyl)amino)butanoate], the concentration for a half-maximal effect (EC50) in data set [3] (setting [14]) is above 100 µM; in data set [3] (setting [15]), 43.3 µM. The values for the Emax in [3] (setting [16]) and in [3] (setting [17]) were 27% and 82%, respectively. The half-inhibitory concentration (IC50) in the data set on IL-1β (THP-1, read-out: IL-1β (IC50)) amounted to 2.4 µM; in the data set with IL-6 (THP-1, read-out: IL-6 (IC50)), 13.3 µM. In addition, the half-life at 10 μM in data set [4] came to 35 min; in [6], 138 min. The Clint in data set [5] was found to be 34 μL min^−1 10^−6 cells; in data set [7], 11 μL min^−1 10^−6 cells.
